Data on four compounds can be found in patent US4263430A, “2-Methyl-5-(2-hydroxystyryl)-1,3,4-thiadiazole” (BASF Aktiengesellschaft, priority 1978, dated 1981).

For data set [1], the target named is T1, cardiac beta-1-receptors (Felis catus, UniProt Q9TST6).
T1 construct: increases the pulse rate of narcotized cats (weighing 2-4 kg) by an average of 40%; from tissue; host or cells: heart of living narcotized cats (in vivo, endogenous receptor)
Put plainly: Beta-sympatholytic action: inhibition of isoproterenol-induced tachycardia in narcotized cats. The conditions noted are these: for ED50: cat, iv, read-out: Beta-sympatholytic action ED50%: dose which inhibits the isoproterenol-induced tachycardia by 50%; for R.A. (relative activity) / factor by which doses blocking the cardiac beta-1-receptors are smaller than those of propranolol: cats; for R.A. (relative activity): Propranolol = 1.00; for factor by which doses blocking the cardiac beta-1-receptors are smaller than those of propranolol: versus propranolol. The class given is in vivo. The procedure: The beta-sympatholytic action of the compounds was tested on cats. […] The following test methods were used:
Beta-sympatholytic agents inhibit the tachycardia.
^1 Inhibition of isoproterenolinduced tachycardia in cats under
hexobarbital narcosis. Compound administered intravenously.

Data set [2] relates to cardiac beta-1-receptors. Particulars: mouse, in vivo.
The next data set in a line: in vivo. The conditions noted are these: mouse, read-out: Acute toxicity LD50.

T1 sequence (Q9TST6 whole entry): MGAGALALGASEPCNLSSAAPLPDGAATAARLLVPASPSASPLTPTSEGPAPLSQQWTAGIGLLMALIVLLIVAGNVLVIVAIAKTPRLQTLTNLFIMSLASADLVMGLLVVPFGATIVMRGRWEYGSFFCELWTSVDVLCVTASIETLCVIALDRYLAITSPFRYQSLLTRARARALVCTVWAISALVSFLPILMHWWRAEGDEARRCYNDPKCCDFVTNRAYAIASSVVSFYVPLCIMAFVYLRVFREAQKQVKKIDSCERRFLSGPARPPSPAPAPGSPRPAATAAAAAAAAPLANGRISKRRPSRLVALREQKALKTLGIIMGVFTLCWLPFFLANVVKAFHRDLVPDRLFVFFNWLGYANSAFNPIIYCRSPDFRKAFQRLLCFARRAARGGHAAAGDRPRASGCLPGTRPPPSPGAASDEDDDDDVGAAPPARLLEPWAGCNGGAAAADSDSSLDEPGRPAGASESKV

With `C#CC(C)NCC(O)COc1ccccc1/C=C/c1nnc(C)s1` (stereo not shown) [Compound 6, 2-Methyl-5-[2-(2-hydroxy-3-(1-butyn-3-ylamino)-propoxy)styryl]-1,3,4-thiadiazole], at cardiac beta-1-receptors [1], the ED50 (in general, the midpoint of the dose-response relation) turned out to be 0.0111 mg/kg and the “R.A. (relative activity)” value worked out at 12.70. In the data set on cardiac beta-1-receptors [2], this compound returned a Therapeutic range relative of 30.68. Also, the LD50 (in general, the dose at which mortality reaches 50%) in “in vivo” is 261 mg/kg.
For `Cc1nnc(/C=C/c2ccccc2OCC(O)CNC(C)(C)C)s1` (stereo not shown) [Compound 5, 2-Methyl-5-[2-(2-hydroxy-3-tert.-butylamino-propoxy)-styryl]-1,3,4-thiadiazole], on cardiac beta-1-receptors [1], the “R.A. (relative activity)” value is reported as 25.22 and the “factor by which doses blocking the cardiac beta-1-receptors are smaller than those of propranolol” value stood at 25. In the data set with cardiac beta-1-receptors [2], this compound yielded a Therapeutic range relative of 13.73.
Turning to `Cc1nnc(/C=C/c2ccccc2OCC(O)CNC(C)C)s1` (stereo not shown) [Compound 3, 2-Methyl-5-[2-(2-hydroxy-3-isopropylamino-propoxy)-styryl]-1,3,4-thiadiazol], on cardiac beta-1-receptors [1], the ED50 is 0.01 mg/kg and the “R.A. (relative activity)” value worked out at 14.10. Further, the Therapeutic range relative with cardiac beta-1-receptors [2] turned out to be 10.84. In addition, in the data set “in vivo”, the LD50 was determined as 83 mg/kg.
Regarding `Cc1nnc(/C=C/c2ccccc2OCC(O)CNC2CC2)s1` (stereo not shown) [Compound 4, 2-Methyl-5-[2-(2-hydroxy-3-cyclopropylamino-propoxy)-styryl]-1,3,4-thiadiazole], at cardiac beta-1-receptors [1], the 50% effective dose (ED50) was 0.012 mg/kg, the “R.A. (relative activity)” value is recorded as 11.75 and the “factor by which doses blocking the cardiac beta-1-receptors are smaller than those of propranolol” value is listed as 12. In the data set with cardiac beta-1-receptors [2], the Therapeutic range relative was determined as 7.55. Moreover, in the data set “in vivo”, the 50% lethal dose (LD50) is 69.4 mg/kg.
